Several values for one entry are separate records, joined by “and”; a condition that tells them apart may be missing. Equal values may be shown once.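 Exposure lasted 48 hours, with cells grown in 96-well plates and compounds tested at five concentrations. Here, GI50 denotes the concentration required for 50% inhibition of growth. TGI denotes the concentration required for complete inhibition of growth.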
How the values were obtained:
Test in all cases: NCI-60 cell line screen, 48 h
ACHN renal = test system: ACHN renal
RXF 393 renal = test system: RXF 393 renal
U251 CNS = test system: U251 CNS
K-562 leukemia = test system: K-562 leukemia
NCI-H23 lung = test system: NCI-H23 lung
RPMI-8226 leukemia = test system: RPMI-8226 leukemia
HOP-92 NSCLC = test system: HOP-92 NSCLC
SF-268 CNS = test system: SF-268 CNS
786-0 renal = test system: 786-0 renal
NCI-H226 lung = test system: NCI-H226 lung

| Compound | TGI (ACHN renal) | TGI (RXF 393 renal) | TGI (U251 CNS) | TGI (K-562 leukemia) | TGI (NCI-H23 lung) | TGI (RPMI-8226 leukemia) | TGI (HOP-92 NSCLC) | TGI (SF-268 CNS) | TGI (786-0 renal) | TGI (NCI-H226 lung) | GI50 (ACHN renal) | GI50 (RXF 393 renal) | GI50 (U251 CNS) | GI50 (K-562 leukemia) | GI50 (NCI-H23 lung) | GI50 (RPMI-8226 leukemia) | GI50 (HOP-92 NSCLC) [µM] | GI50 (SF-268 CNS) | GI50 (786-0 renal) | GI50 (NCI-H226 lung) |
| --- | --- | --- | --- | --- | --- | --- | --- | --- | --- | --- | --- | --- | --- | --- | --- | --- | --- | --- | --- | --- |
| CC(=O)O[C@]1(C(C)=O)CC[C@H]2[C@@H]3C[C@H](C)C4=CC(=O)C=C[C@]4(C)[C@@]3(F)[C@@H](O)C[C@@]21C | > 100 µM | > 100 µM | > 100 µM | > 100 µM | > 100 µM | > 100 µM | > 100 µM | > 100 µM | > 100 µM | > 100 µM |  |  |  |  |  |  |  |  |  |  |
| O=C1OCC(c2ccc(O)c(O)c2)=C1c1cc(O)c(O)c(O)c1 | > 100 µM | > 100 µM | 32.7 µM | 46.1 µM | 38.2 µM | 79 µM | 18.2 µM | > 100 µM | 32.7 µM | > 100 µM | 33.3 µM | > 100 µM | 17.9 µM | 21.2 µM | 19.2 µM | 26.2 µM | 2.76 | 63.7 µM | 18.1 µM | 69 µM |
| OCCN1CCN(CCCN2c3ccccc3Sc3ccc(C(F)(F)F)cc32)CC1 | 10.2 µM and 25.6 µM and 22.6 µM | 6.39 µM and 18.9 µM and 19.6 µM | 5.44 µM and 18.4 µM and 14.5 µM | 2.83 µM and 10.7 µM and 4.73 µM | 12 µM and 24.5 µM and 24.1 µM | 4.69 µM | 3.81 µM | 11.5 µM and 24.5 µM | 9.95 µM and 25.9 µM and 20.4 µM | 11.8 µM and 27.6 µM and 25.7 µM | 3.61 µM and 11.7 µM and 10.2 µM | 1.35 µM and 5.08 µM and 5.7 µM | 1.45 µM and 5.19 µM and 3.66 µM | 1.27 µM and 3.18 µM and 2.05 µM | 5.2 µM and 11.6 µM and 10.5 µM | 1.54 µM | 0.708 | 5.2 µM and 11.5 µM | 3.01 µM and 9.35 µM and 3.81 µM | 5.3 µM and 12.7 µM and 12.3 µM |
| C[C@@H]1O[C@@H](O[C@H]2C[C@@H](O)[C@]3(CO)C4C(CC[C@]3(O)C2)[C@@]2(O)CC[C@H](C3=CC(=O)OC3)[C@@]2(C)C[C@H]4O)[C@H](O)[C@H](O)[C@H]1O (some centres undefined) | 0.0461 µM | 0.0291 µM | 0.0839 µM | 0.162 µM | 0.0602 µM | 1.76 µM | 0.25 µM | 0.0642 µM | 0.0687 µM | 0.154 µM | 0.0148 µM | 0.0115 µM | 0.025 µM | 0.0323 µM | 0.0163 µM | 0.0672 µM | 0.0597 | 0.0189 µM | 0.018 µM | 0.0741 µM |
| Cc1cccc(C)c1NC(=O)CCC(=O)NNC(=O)c1cc(O)c2ccccc2c1 | > 100 µM | > 100 µM | > 100 µM | > 100 µM | 88 µM | > 100 µM | > 100 µM | > 100 µM | > 100 µM | > 100 µM |  |  |  |  |  |  |  |  |  |  |
| COC1/C=C/O[C@@]2(C)Oc3c(C)c(O)c4c(O)c(cc(O)c4c3C2=O)NC(=O)/C(C)=C\C=C\[C@H](C)C(O)[C@@H](C)[C@@H](O)[C@@H](C)[C@H](OC(C)=O)[C@@H]1C (some centres undefined) | 30.5 µM and 41.9 µM | 29.9 µM and 25.7 µM | 30.1 µM and 116 µM | 21.8 µM and 82.6 µM | 33.8 µM | 17.2 µM and 47.4 µM | 24.3 µM and 23.6 µM | 33.4 µM and 61.7 µM | 15.9 µM and 29.5 µM | 179 µM | 16.9 µM | 14 µM | 16.5 µM | 4.47 µM |  | 2.14 µM and 7.37 µM | 12 | 18.3 µM | 4.29 µM | 39.6 µM and 59.3 µM |

Source: PubChem BioAssay (NCI)
